Results: patent US20260078120A1, “SUBSTITUTED PYRIDOPYRIMIDINONES” (MIRATI THERAPEUTICS, INC., priority 2022, published 2026)
Where two headings read alike, the source gives them in different places.

Columns and labels:
[1] = system: T47D (PI3Kα H1047R mutant) cells; test: CellTiter-Glo 2.0 luminescent cell viability assay, 72 hours, T47D cells; type: cell-based; conditions: T47D (PI3Kα H1047R mutant) cells, CellTiter-Glo, approximately 72 hours, read-out: T47D (H1047R mutant) Viability IC50
Outline: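 Cells seeded at 1000 per well overnight were dosed with a 10-concentration, 1:4 series starting at 10 µM and incubated ~72 h at 37° C. Viability was read by CellTiter-Glo 2.0 luminescence after 30 min at room temperature. IC50 came from four-parameter fits of percent vehicle control.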

[2] = system: SKBR3 (PI3Kα wild type) cells; test: CellTiter-Glo 2.0 luminescent cell viability assay, 72 hours, SKBR3 cells; type: cell-based; conditions: Homo sapiens, SK-BR-3, 72 h, SKBR3 (PI3Kα wild type) cells, CellTiter-Glo, approximately 72 hours; read-out: SKBR3 (WT) Viability IC50
Outline: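 Viability measured via CTG luminescence following roughly 72 hours of compound exposure at 37° C. Dosing used a 10 um starting concentration diluted 1:4 over 10 points; percent-of-vehicle data fitted with a variable-slope four-parameter model for IC50.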

Row | IC50 ([1]; Homo sapiens, T47D, 72 h) | IC50 [2] | IC50 [1] | SMILES
1 | > 10000 nM | > 10000 nM |  | Cc1cc(C(C)NC(C)(C)CC(=O)O)c2nc(N3CCCCC3)cc(=O)n2c1 (stereo not shown) [Example 11-387, 3-methyl-3-((1-(7-methyl-4-oxo-2-(piperidin-1-yl)-4H-pyrido[1,2-a]pyrimidin-9-yl)ethyl)amino)butanoic acid]
2 | 119 nM | > 10000 nM |  | Cc1cc([C@@H](C)Nc2ccccc2C(=O)O)c2nc(N3CCN(c4ncc(C#N)cn4)CC3)c(C)c(=O)n2c1 [Example 11-258, (R)-2-((1-(2-(4-(5-cyanopyrimidin-2-yl)piperazin-1-yl)-3,7-dimethyl-4-oxo-4H-pyrido[1,2-a]pyrimidin-9-yl)ethyl)amino)benzoic acid]
3 | 557 nM | > 10000 nM |  | Cc1cc([C@@H](C)Nc2ccccc2C(=O)O)c2nc(N3CCc4scnc4C3)c(C#N)c(=O)n2c1 [Example 11-306, (R)-2-((1-(3-cyano-2-(6,7-dihydrothiazolo[4,5-c]pyridin-5(4H)-yl)-7-methyl-4-oxo-4H-pyrido[1,2-a]pyrimidin-9-yl)ethyl)amino)benzoic acid]
4 | 272 nM | > 10000 nM |  | Cc1cc([C@@H](C)Nc2ccc(Cl)nc2C(=O)O)c2nc(N3Cc4nccnc4C3)c(C)c(=O)n2c1 [Example 11-139, (R)-6-chloro-3-((1-(2-(5,7-dihydro-6H-pyrrolo[3,4-b]pyrazin-6-yl)-3,7-dimethyl-4-oxo-4H-pyrido[1,2-a]pyrimidin-9-yl)ethyl)amino)picolinic acid]
5 | 236 nM | > 10000 nM |  | Cc1cc([C@@H](C)Nc2ccccc2C(=O)O)c2nc(N3CCN(c4ccccc4C)CC3)c(C)c(=O)n2c1 [Example 11-267, (R)-2-((1-(3,7-dimethyl-4-oxo-2-(4-(o-tolyl)piperazin-1-yl)-4H-pyrido[1,2-a]pyrimidin-9-yl)ethyl)amino)benzoic acid]

Second part, the molecule before the results:

Row | SMILES | IC50 ([1]; Homo sapiens, T47D, 72 h) | IC50 [2] | IC50 [1]
6 | Cc1cc([C@@H](C)Nc2ccccc2C(=O)O)c2nc(N3C[C@@H](C)C(F)(F)C3)c(C)c(=O)n2c1 [Example 11-120, 2-(((R)-1-(2-((R)-3,3-difluoro-4-methylpyrrolidin-1-yl)-3,7-dimethyl-4-oxo-4H-pyrido[1,2-a]pyrimidin-9-yl)ethyl)amino)benzoic acid] | 168 nM | > 10000 nM | 
7 | Cc1cc([C@H](C)Nc2ccc(F)nc2C(=O)O)c2nc(N3CCC(F)(F)CC3)c(C#N)c(=O)n2c1 [Example 11-43, (S)-3-((1-(3-cyano-2-(4,4-difluoropiperidin-1-yl)-7-methyl-4-oxo-4H-pyrido[1,2-a]pyrimidin-9-yl)ethyl)amino)-6-fluoropicolinic acid] | 372 nM | > 10000 nM | 
8 | Cc1cc([C@@H](C)Nc2ccccc2C(=O)O)c2nc(N3CC4CC(C3)C4(C)O)c(C)c(=O)n2c1 (stereo partly drawn) [Example 11-34, 2-(((1R)-1-(2-(6-hydroxy-6-methyl-3-azabicyclo[3.1.1]heptan-3-yl)-3,7-dimethyl-4-oxo-4H-pyrido[1,2-a]pyrimidin-9-yl)ethyl)amino)benzoic acid] | 215 nM | > 10000 nM | 
9 | Cc1cc([C@@H](C)Nc2ccc(F)nc2C(=O)O)c2nc(N3CCC(F)(F)CC3)c(C)c(=O)n2c1 [Example 10-105, (R)-3-((1-(2-(4,4-difluoropiperidin-1-yl)-3,7-dimethyl-4-oxo-4H-pyrido[1,2-a]pyrimidin-9-yl)ethyl)amino)-6-fluoropicolinic acid] |  | > 10000 nM | 89.4 nM
10 | Cc1cc([C@@H](C)Nc2ccccc2C(=O)O)c2nc(N3CCc4sc(C)nc4C3)c(C#N)c(=O)n2c1 [Example 11-305, (R)-2-((1-(3-cyano-7-methyl-2-(2-methyl-6,7-dihydrothiazolo[4,5-c]pyridin-5(4H)-yl)-4-oxo-4H-pyrido[1,2-a]pyrimidin-9-yl)ethyl)amino)benzoic acid] | 501 nM | > 10000 nM | 
11 | Cc1cc([C@@H](C)Nc2ccccc2C(=O)O)c2nc(N3CCC4(CCC(F)(F)C4)C3)c(C)c(=O)n2c1 (stereo partly drawn) [Example 11-447, 2-(((1R)-1-(2-(7,7-difluoro-2-azaspiro[4.4]nonan-2-yl)-3,7-dimethyl-4-oxo-4H-pyrido[1,2-a]pyrimidin-9-yl)ethyl)amino)benzoic acid] | 645 nM | > 10000 nM | 
